The values below come from PubChem BioAssay (NCI).

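In this assay, cells in 96-well plates receive the compound at five concentrations for 48 hours. Endpoints are linearly interpolated between the surrounding concentrations. At the GI50, growth is halved. TGI: total growth inhibition.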

Some test systems named below: ACHN renal; HL-60(TB) leukemia; NCI-H460 lung; NCI-H522 lung; SK-MEL-28 melanoma; SN12C renal; T-47D breast; TK-10 renal; UACC-257 melanoma; UACC-62 melanoma.
Common to all, as to experiment: inhibition of tumour cell growth, NCI panel, 48 h

As to `O=C(NCc1ccncc1)C12CC3CC(C1)CC(c1ccc(Cl)cc1)(C3)C2`, the GI50 in the experiment on ACHN renal is 12.5 µM; in the experiment on HL-60(TB) leukemia, 5.58 µM; in the experiment on NCI-H460 lung, 14.8 µM; in the experiment with NCI-H522 lung, 13.5 µM; in the experiment on SK-MEL-28 melanoma it was 12.7 µM; in the experiment on SN12C renal, 13.4 µM. In addition, the GI50 was 6.88 µM in the experiment on T-47D breast, 15.3 µM with TK-10 renal, 12.4 µM in the experiment on UACC-257 melanoma and 5.02 µM with UACC-62 melanoma. The TGI in the experiment with ACHN renal was found to be 25 µM; with HL-60(TB) leukemia, 27.1 µM; with NCI-H460 lung it was 28.6 µM; in the experiment on NCI-H522 lung it was 28.8 µM; in the experiment with SK-MEL-28 melanoma, 25.5 µM; with SN12C renal, 27.3 µM. The TGI in the experiment with T-47D breast was determined as 27.5 µM; in the experiment on TK-10 renal, 29.5 µM; in the experiment on UACC-257 melanoma it was 25.1 µM; with UACC-62 melanoma, 18.7 µM.

Regarding `CC(=O)C1(N=Nc2ccc(S(N)(=O)=O)cc2)CCOC1=O` (stereo not drawn), the TGI in the experiment with ACHN renal, with HL-60(TB) leukemia, in the experiment on NCI-H460 lung, in the experiment on NCI-H522 lung, in the experiment on SK-MEL-28 melanoma and in the experiment with SN12C renal was greater than 100 µM in each case. Moreover, the TGI in the experiment on T-47D breast, in the experiment on TK-10 renal, with UACC-257 melanoma and with UACC-62 melanoma was greater than 100 µM throughout.

On to `CNC(=O)Oc1cc(C)c(/C=C/c2cncc(C(=O)NC)c2)c(C)c1`, for which the GI50 was greater than 25 µM with ACHN renal; greater than 21.2 µM in the experiment with HL-60(TB) leukemia; greater than 25 µM with NCI-H460 lung; greater than 23.4 µM with NCI-H522 lung; 18.8 µM with SK-MEL-28 melanoma; greater than 25 µM with SN12C renal. For the same compound, the GI50 is greater than 25 µM in the experiment on T-47D breast, greater than 25 µM with TK-10 renal, 24.7 µM in the experiment on UACC-257 melanoma and 13.2 µM in the experiment on UACC-62 melanoma. Also, the TGI in the experiment with ACHN renal, in the experiment with HL-60(TB) leukemia, in the experiment on NCI-H460 lung, with NCI-H522 lung, in the experiment on SK-MEL-28 melanoma and in the experiment on SN12C renal was greater than 25 µM throughout. Also, the TGI in the experiment with T-47D breast, with TK-10 renal, in the experiment with UACC-257 melanoma and with UACC-62 melanoma was greater than 25 µM each time.

Consider `Cc1cc(Oc2ccc3nc(COc4ccc(CC5SC(=O)NC5=O)cc4)n(C)c3c2)cc(C)c1N` (stereo not drawn), for which the GI50 in the experiment on ACHN renal is 48.9 µM; in the experiment on HL-60(TB) leukemia it was 26.8 µM; with NCI-H460 lung it was 26.6 µM; with NCI-H522 lung, 33.2 µM; in the experiment with SK-MEL-28 melanoma it was 49.7 µM; in the experiment with SN12C renal, 44.1 µM. The GI50 in the experiment on T-47D breast is 25.7 µM; with TK-10 renal, greater than 52.6 µM; in the experiment with UACC-257 melanoma it was 30.8 µM; in the experiment on UACC-62 melanoma, 22.5 µM. For the same compound, the TGI was greater than 100 µM in the experiment with ACHN renal; 88 µM in the experiment on HL-60(TB) leukemia; greater than 90.7 µM with NCI-H460 lung; greater than 73.9 µM with NCI-H522 lung; greater than 100 µM in the experiment with SK-MEL-28 melanoma; greater than 100 µM with SN12C renal. The TGI was greater than 66.9 µM in the experiment on T-47D breast, greater than 91.6 µM in the experiment on TK-10 renal, greater than 75.5 µM in the experiment with UACC-257 melanoma and 72.4 µM in the experiment on UACC-62 melanoma.

`Cc1cc(O)cc(C)c1/C=C/c1cncc(-c2nn[nH]n2)c1`: the GI50 in the experiment with ACHN renal, in the experiment on HL-60(TB) leukemia, in the experiment with NCI-H460 lung, with NCI-H522 lung, in the experiment with SK-MEL-28 melanoma and with SN12C renal was greater than 25 µM throughout. The GI50 in the experiment with T-47D breast, with TK-10 renal, in the experiment on UACC-257 melanoma and with UACC-62 melanoma was greater than 25 µM in each case. In addition, the TGI with ACHN renal, with HL-60(TB) leukemia, in the experiment with NCI-H460 lung, in the experiment with NCI-H522 lung, in the experiment with SK-MEL-28 melanoma and in the experiment on SN12C renal was greater than 25 µM throughout. In addition, the TGI in the experiment with T-47D breast, with TK-10 renal, in the experiment with UACC-257 melanoma and with UACC-62 melanoma was greater than 25 µM throughout.

As for `CCOC(=O)/C(=C(/C)NCC(C)C)c1cc(O)c(O)c2c(C)cc(=O)[nH]c12`, the GI50 in the experiment with ACHN renal is 7.99 µM; with HL-60(TB) leukemia, 2.63 µM; in the experiment on NCI-H460 lung, 4.32 µM; in the experiment with NCI-H522 lung, 3.02 µM; in the experiment on SK-MEL-28 melanoma, 34.7 µM; in the experiment on SN12C renal, 4.96 µM. For the same compound, the GI50 in the experiment on T-47D breast is 5.09 µM; in the experiment with TK-10 renal it was 9.18 µM; in the experiment on UACC-257 melanoma, 14.3 µM; with UACC-62 melanoma it was 7.12 µM. In addition, the TGI was greater than 100 µM in the experiment with ACHN renal; greater than 100 µM in the experiment on HL-60(TB) leukemia; greater than 100 µM in the experiment on NCI-H460 lung; 51.6 µM in the experiment with NCI-H522 lung; greater than 100 µM in the experiment on SK-MEL-28 melanoma; greater than 100 µM in the experiment with SN12C renal. Besides, the TGI in the experiment with T-47D breast is greater than 100 µM; in the experiment with TK-10 renal, 68.3 µM; in the experiment with UACC-257 melanoma it was greater than 100 µM; in the experiment on UACC-62 melanoma, greater than 100 µM.

With `COc1ccc(-c2c(-c3cc(OC)c(OC)c(OC)c3)noc2N)cc1`, the GI50 in the experiment with ACHN renal was less than 0.0141 µM; with HL-60(TB) leukemia, 0.0215 µM; in the experiment with NCI-H460 lung, less than 0.015 µM; in the experiment on NCI-H522 lung, less than 0.01 µM; with SK-MEL-28 melanoma, 0.016 µM; with SN12C renal it was 0.0374 µM. The GI50 in the experiment with T-47D breast was 9.91 µM; in the experiment with TK-10 renal it was 0.461 µM; in the experiment on UACC-257 melanoma, less than 0.01 µM; in the experiment on UACC-62 melanoma, less than 0.01 µM. Besides, the TGI was 43.8 µM in the experiment with ACHN renal; 0.0589 µM in the experiment with HL-60(TB) leukemia; greater than 33.8 µM in the experiment with NCI-H460 lung; greater than 100 µM with SK-MEL-28 melanoma; greater than 69.8 µM in the experiment with SN12C renal; greater than 100 µM in the experiment on T-47D breast. The TGI is greater than 56.5 µM with TK-10 renal, greater than 100 µM in the experiment on UACC-257 melanoma and greater than 65.2 µM in the experiment on UACC-62 melanoma.

For the compound `CCS(=O)(=O)Nc1cccc(Nc2c3cccc(C)c3nc3c(C)cccc23)c1OC`, the GI50 in the experiment with ACHN renal is 0.326 µM; in the experiment with HL-60(TB) leukemia it was 0.25 µM; in the experiment on NCI-H460 lung, 0.104 µM; with NCI-H522 lung it was 2.58 µM; with SK-MEL-28 melanoma it was 4.29 µM; in the experiment with SN12C renal it was 0.374 µM. Also, the GI50 in the experiment with T-47D breast is 0.58 µM; in the experiment with TK-10 renal, 2.24 µM; in the experiment with UACC-257 melanoma it was 2.46 µM; in the experiment with UACC-62 melanoma, 0.635 µM. Further, the TGI in the experiment with ACHN renal was 16.5 µM; in the experiment with NCI-H460 lung it was 4.6 µM; with NCI-H522 lung, 19.5 µM; in the experiment on SK-MEL-28 melanoma, greater than 100 µM; in the experiment on SN12C renal, 9.84 µM; with T-47D breast, greater than 30.4 µM. For the same compound, the TGI in the experiment with TK-10 renal is 11.5 µM; with UACC-257 melanoma, 38.5 µM; in the experiment with UACC-62 melanoma, greater than 100 µM.
